pIC50: −log10 of the molar value. Structures can show the parent of a compound that is named as a salt. Where two headings read alike, the source gives them in different places.
Tests used:
PC14 strain = assay: Cytotoxicity test against lung cancer cells, PC14
Description: (§1) The cytotoxicity test was performed on the K252a-H bonded aromatic polymer micelle and the K252a-H bonded aliphatic polymer micelle using the lung cancer cell strains listed in Table 4.
(§2) 2000 cells/50 μL of a cell solution was adjusted to have an appropriate amount, and 50 μL of the solution was each seeded to the […] of a 96-well plate. Only a culture medium (DMEM culture medium containing 10% FBS) was added to the raw 1. After the seeding, the 96-well plate was incubated for 24 hours.
(§3) 300 μL of a culture medium was added to each of 10 wells of the 24-well plate. 100 μL of the micelle solution was added to the well 1A of the 24-well plate and stirred by pipetting (approximately 10 times), and 100 μL of the micelle solution was transferred to the well 2B and stirred in the same manner as described above. The same operation was repeated 10 times, and micelle solutions having ten different concentrations were prepared.
(§4) 50 μL of each micelle solution adjusted in the above-described manner was added to the row 3 to the row 12 of a 96-well plate seeded with cancer cells in descending order of micelle concentrations of the solutions. Only 50 μL of a culture medium was added to the rows 1 and 2. Thereafter, the 96-well plate was incubated. After the incubation, the cells remained, the solutions in the wells were removed, and the cells in each well were washed with 200 μL of the culture medium. Finally, 100 μL of the culture medium was added to each well and the 96-well plate was incubated for 48 hours.
(§5) After 48 hours, 10 μL of a cell counting kit-8 solution (DOJINDO) was added to each well. The 96-well plate was incubated again, and the absorbance at a wavelength of 450 nm was measured after 30 minutes, 1 hour, and 2 hours.
The PC14.PE6 strain is a cancer cell strain (Yano et al., Oncology Research 9:573 to 579 (1997)) obtained by performing an operation of administering the PC14 strain to the tail vein of a mouse and establishing the cancer cells metastasized to the thoracic cavity six times. […]

PC14.PE6 strain = assay: Cytotoxicity test against lung cancer cells, PC14.PE6
Description: as §1, §2, §3, §4, §5
The PC14.PE6 strain is a cancer cell strain (Yano et al., Oncology Research 9:573 to 579 (1997)) obtained by performing an operation of administering the PC14 strain to the tail vein of a mouse and establishing the cancer cells metastasized to the thoracic cavity six times. Therefore, the PC14.PE6 strain is a cancer cell strain which is extremely metastatic and malignant.

[1] = tested on: head and neck cancer cell strains; assay: Cytotoxicity test against head and neck cancer cells; assay type: cell-based; conditions: all head and neck cancer cell strains, FIG. 32
Description: The cytotoxicity test was performed on the K252a-H bonded aromatic polymer micelle and the K252a-H bonded aliphatic polymer micelle using various head and neck cancer cell strains in the same manner as described above. Further, CDDP indicates Cisplatin serving as a target treatment drug for head and neck cancer.

[2] = target: mutant kinases (list of FIG. 42); assay: Hot spot kinase profiling, Monthly 202 mutant kinase panel; assay type: biochemical; conditions: 100 nM, ATP 10 μM, mutant kinases listed in FIG. 42
Description: (§6) The kinase profiling of K252a-H was performed using Monthly 202 mutant kinase panel by entrustment with Reaction Biology Corporation. The conditions for the kinase assay are as follows. KK252a was dissolved in DMSO and the assay was performed at 100 nM.
(§7) Buffer condition: 20 mM HEPES, pH of 7.5, 10 mM MgCl2, 1 mM EGTA, (in a case of being applicable, 2 mM MnCl2)

c-kit = assay: Hot spot kinase profiling; assay type: biochemical; conditions: 100 nM, ATP 10 μM
Description: as §6, §7

Flt3 = assay: Hot spot kinase profiling; assay type: biochemical; conditions: 100 nM, ATP 10 μM
Description: as §6, §7

RET = assay: Hot spot kinase profiling; assay type: biochemical; conditions: 100 nM, ATP 10 μM
Description: as §6, §7

[3] = tested on: mesothelioma cell strain MSTO-211H; assay: Cytotoxicity test against mesothelioma cells; assay type: cell-based; conditions: FIG. 33
Excerpt: Further, CDDP indicates Cisplatin serving as a target treatment drug for mesothelioma. Pemetrexed is also a target treatment drug for mesothelioma.

[4] = tested on: pancreatic cancer cell strains; assay: Cytotoxicity test against pancreatic cancer cells; assay type: cell-based; conditions: FIG. 31
Description: The cytotoxicity test was performed on the K252a-H bonded aromatic polymer micelle and the K252a-H bonded aliphatic polymer micelle using various pancreatic cancer cell strains in the same manner as described above. The BXPC3-F3 strain is a metastatic strain which became malignant by performing an operation of establishing a cancer cell strain metastasized to the liver after orthotopic transplant into a mouse, three times. Further, KP-3L is a metastatic strain (available from the cell bank of National Institutes of Biomedical Innovation, Health and Nutrition JCRB) obtained by establishing a cancer cell strain metastasized to the liver after human liver metastatic pancreatic cancer was transplanted to the spleen of a nude mouse.

EGFR T790M = target: T1, EGFR T790M (Homo sapiens, UniProt P00533, T790M); assay: Hot spot kinase profiling, EGFR mutation; assay type: biochemical; conditions: 100 nM, ATP 10 μM, FIG. 40
T1 construct: purchased Reaction Biology Corporation
Description: as §6, §7

EGFR L858R = target: T2, EGFR L858R (Homo sapiens, UniProt P00533, L858R); assay: Hot spot kinase profiling, EGFR mutation; assay type: biochemical; conditions: 100 nM, ATP 10 μM, FIG. 40
T2 construct: purchased Reaction Biology Corporation
Description: as §6, §7

EGFR d746-750/T790M = target: T3, EGFR d746-750/T790M (Homo sapiens, UniProt P00533, DEL746-750/T790M); assay: Hot spot kinase profiling, EGFR mutation; assay type: biochemical; conditions: 100 nM, ATP 10 μM, FIG. 40
T3 construct: purchased Reaction Biology Corporation
Description: as §6, §7

[5] = target: T4, EGFR d746-750/T790M/C797S (Homo sapiens, UniProt P00533, C797S/DEL746-750/T790M); assay: Hot spot kinase profiling, EGFR mutation; assay type: biochemical; conditions: 100 nM, ATP 10 μM, FIG. 40
T4 construct: purchased Reaction Biology Corporation
Description: as §6, §7

[6] = Solubilization test in water; assay type: physicochemical; conditions: distilled water, UV absorption spectrum of filtrate
Description: K252a-H powder was dissolved in distilled water or methanol at a ratio of 1 mg/mL and the solution was sufficiently mixed. Thereafter, the solution was filtered using a filter having a pore diameter of […]. The ultraviolet absorption spectrum of the filtrate prepared as described above was measured using a spectrophotometer (Jasco V670). Based on the results of FIG. 27, it was confirmed that K252a-H was only dissolved in water at a ratio of 1 μg/mL or less.
Meanwhile, the K252a-H bonded aromatic polymer micelle and the K252a-H bonded aliphatic polymer micelle were dissolved in water, and the concentration of K252a-H was measured using HPLC.

[7] = tested on: lung cancer cell strains listed in Table 4; assay: Cytotoxicity test against lung cancer cells; assay type: cell-based; conditions: FIG. 29
Excerpt: Further, in the following example, the used cell strains were purchased from the cell bank of American Type Culture. Collection, ATCC or National Institutes of Biomedical Innovation, Health and Nutrition (JCRB). PC14 PE6 was distributed from Profession Hosho (Tottori University). As the culture medium, DMEM, RPMI, or E-MEM was used unless otherwise specified. Gefitinib, Afatinib, Erlotinib, Cisplatin, Pemetrexed, and Gemicitabine were purchased from Funakoshi Co., Ltd. Osimertinib was purchased from Sellek Chemicals LLC.
Thereafter, the 96-well plate was incubated.

[8] = Evaluation of maximum tolerated dose (MTD) of drug conjugate; assay type: in vivo, mouse
Description: The drug was administered to mice (BALB/c Nude, female, 6 weeks old) four times (0 day, 3rd day, 6th day, 9th day) […], and the maximum tolerated dose (MTD) was evaluated. The administration groups were prepared as follows, and the number of mice in each group was set to 5.
Administration group 1: PBS (control)
Administration group 2: 2 mg/kg of DAVBNH (VinHyd)
Administration group 3: 2 mg/kg of DAVBNH bonded polymer micelle (Example 1)
Administration group 4: 4 mg/kg of DAVBNH bonded polymer micelle (Example 1)
Administration group 5: 16 mg/kg of DAVBNH bonded polymer micelle (Example 1)

[9] = Evaluation of maximum tolerated dose (MTD) of DAVBNH; assay type: in vivo, mouse
Description: DAVBNH was administered to mice (BALB/c Nude, female, 6 weeks old) four times (0 day, 3rd day, 6th day, 9th day) […], and the maximum tolerated dose (MTD) was evaluated. The administration groups were prepared as follows, and the number of mice in each group was set to 3.
Administration group 1: 3 mg/kg of DAVBNH
Administration group 2: 4 mg/kg of DAVBNH
Administration group 3: 6 mg/kg of DAVBNH

[10] = tested on: U87MG serving as a glioma cell strain; assay: Cytotoxicity test against brain tumor cells (cell-counting kit-8); assay type: cell-based; conditions: Homo sapiens, U-87 MG
Description: The in vitro cytotoxicity of the vinblastine sulfate and the drug conjugate (DAVBNH bonded polymer micelle of Example 1) was evaluated using cell-counting kit-8 with respect to U87MG serving as a glioma cell strain. The U87MG cells (3000 cells/well) were cultured in a DMEM medium containing 10% FBS using a 96-well plate. Thereafter, the U87MG cells were exposed to the vinblastine sulfate or the drug conjugate whose dose was different from that of the vinblastine sulfate. The cell survival rates after 48 hours and 72 hours from the exposure were acquired by measuring the formazan absorbance […] 450 nm.

[11] = mouse; cited from earlier work
[12] = malignant metastatic strain, compared with PC14

SMILES: COc1cc2ncnc(Nc3ccc(F)c(Cl)c3)c2cc1OCCCN1CCOCC1 [Gefitinib]
- cytotoxic activity against the PC14 strain (PC14 strain): excellent cytotoxic activity
- cytotoxic activity against the PC14.PE6 strain (PC14.PE6 strain): significantly decreased

SMILES: CC12OC(CC1(O)C(=O)NN)n1c3ccccc3c3c4c(c5c6ccccc6n2c5c31)CNC4=O (centres unmarked) [Example K252a-H, K252a hydrazide]
- cytotoxic activity compared with Cisplatin [1]: higher cytotoxic activity against all head and neck cancer cell strains than that of Cisplatin
- kinase activity suppressed to [2]: ≤ 30%
- inhibition of oncogene c-kit (c-kit): strong inhibitor
- inhibition of oncogene Flt3 (Flt3): strong inhibitor
- inhibition of oncogene RET (RET): strong inhibitor
- cytotoxic activity compared with Cisplatin and Pemetrexed [3]: higher cytotoxic activity than that of Cisplatin and Pemetrexed
- effect on K-ras mutant strains and malignant metastatic strains [4]: effective for K-ras mutant strains and malignant metastatic strains
- activity against EGFR gatekeeper mutation T790M (EGFR T790M): specifically high activity
- activity against EGFR gatekeeper mutation L858R (EGFR L858R): specifically high activity
- activity against EGFR gatekeeper mutation d746-750/T790M (EGFR d746-750/T790M): specifically high activity
- activity against EGFR gatekeeper mutation d746-750/T790M/C797S [5]: specifically high activity
- dissolved in water [6]: ≤ 1 µg/mL
- cytotoxic activity against the PC14.PE6 strain (PC14.PE6 strain; [12]): increased
- cytotoxic activity against lung cancer having resistance to lung cancer treatment drugs of the related art [7]: excellent cytotoxic activity

SMILES: CC[C@]1(O)C[C@@H]2CN(CCc3c([nH]c4ccccc34)[C@@](C(=O)OC)(c3cc4c(cc3OC)N(C)[C@H]3[C@@](O)(C(=O)NN)[C@H](O)[C@]5(CC)C=CCN6CC[C@]43[C@@H]65)C2)C1 [DAVBNH, desacetyl vinblastine hydrazide]
- weight loss ([8]; dose 2 mg/kg): a weight loss occurs
- MTD ([8]; female, BALB/c Nude, mouse, in vivo, 2 mg/kg, mice, as used in Example 8): 2 mg/kg
- weight loss ([9]; dose of 3 mg/kg, after only 25% of the treatment schedule): significant weight loss was observed
- lethal dose ([9]; mice, four administrations): 6 mg/kg

SMILES: CC[C@]1(O)C[C@@H]2CN(CCc3c([nH]c4ccccc34)[C@@](C(=O)OC)(c3cc4c(cc3OC)N(C)[C@H]3[C@@](O)(C(=O)OC)[C@H](OC(C)=O)[C@]5(CC)C=CCN6CC[C@]43[C@@H]65)C2)C1 [Vinblastine sulfate, vinblastine sulfate]
- pIC50 ([10]; 48 hours from the exposure, read-out: IC50 48 hours): 8.85
- pIC50 ([10]; 72 hours from the exposure, read-out: IC50 72 hours): 8.77

SMILES: CC[C@]1(O)C[C@@H]2CN(CCc3c([nH]c4ccccc34)[C@@](C(=O)OC)(c3cc4c(cc3OC)N(C)[C@H]3[C@@](O)(C(=O)OC)[C@H](OC(C)=O)[C@]5(CC)C=CCN6CC[C@]43[C@@H]65)C2)C1 [Vinblastine, vinblastine]
- maximum tolerated dose [11]: 2 mg/kg

SMILES: CN(C)C/C=C/C(=O)Nc1cc2c(Nc3ccc(F)c(Cl)c3)ncnc2cc1O[C@H]1CCOC1 [Afatinib]
- cytotoxic activity against the PC14 strain (PC14 strain; FIGS. 29 and 30): excellent cytotoxic activity
- cytotoxic activity against the PC14.PE6 strain (PC14.PE6 strain; [12]): significantly decreased

SMILES: Nc1ccn([C@@H]2O[C@H](CO)[C@@H](O)C2(F)F)c(=O)n1 [Gemcitabine]
- effect on K-ras mutant strains and malignant metastatic strains [4]: not largely affected

SMILES: C=CC(=O)Nc1cc(Nc2nccc(-c3cn(C)c4ccccc34)n2)c(OC)cc1N(C)CCN(C)C [Osimertinib]
- cytotoxic activity against the PC14 strain (PC14 strain): excellent cytotoxic activity
- cytotoxic activity against the PC14.PE6 strain (PC14.PE6 strain): significantly decreased

SMILES: C#Cc1cccc(Nc2ncnc3cc(OCCOC)c(OCCOC)cc23)c1 [Erlotinib]
- effect on K-ras mutant strains and malignant metastatic strains [4]: not largely affected
